Test results: patent US20160045463A1, “USE OF METALLOPROTEASE INHIBITORS IN THE TREATMENT OF POLYCYSTIC LIVER DISEASES” (UNIVERSIDAD DE SALAMANCA, priority 2012, published 2016)

Legend:
[1] = test system: polycystic human cholangiocytes; experiment: MMP mRNA expression by quantitative PCR in the presence of IL-6, IL-8 or 17β-estradiol; type: cell-based; conditions: for expression of MMP-2 (mRNA): FIG. 10; for expression of MMP-3 (mRNA): FIG. 11; for expression of MMP-7 (mRNA): FIG. 12; for expression of MMP-10 (mRNA): FIG. 13; for expression of MMP-11 (mRNA): FIG. 14; for expression of MMP-13 (mRNA): FIG. 15; for expression of MMP-15 (mRNA): FIG. 16; for expression of MMP-17 (mRNA): FIG. 17; for expression of MMP-27 (mRNA): FIG. 18
Description: (§1) To determine if the metalloproteolytic hyperactivity of polycystic human cholangiocytes is associated with changes in the pattern of expression of MMPs and their natural inhibitors, TIMPs, at the level of mRNA, this was analysed by quantitative PCR (i.e. qPCR) using the cDNA previously obtained as explained in Example 1, the gene expression of a total of 22 genes, including those containing the members of the metalloprotease family: MMP-1, MMP-2, MMP-3, MMP-7, MMP-8, MMP-9, MMP-10, MMP-11, MMP-13, MMP-14, MMP-15, MMP-16, MMP-17, MMP-18, MMP-24, MMP-25, MMP-26, MMP-27 and their natural inhibitors: TIMP-1, TIMP-2, TIMP-3, TIMP-4. Briefly, 4 μl of the cDNA were taken and 1.8 μl of a 10 μM solution of each primer (final concentration 0.9 μM) and 10 μl of FastSYBR® Green (Applied Biosystems) were added, adding sterile water (Braun) to reach a final volume of 20 μl. The amplification reactions were performed in a StepOne Plus (Applied Biosystems) thermo cycler following the standard protocol conditions for FastSYBR Green®.
(§2) The relative estimate of the mRNA levels of the genes of Table 2 were calculated from the PCR progression curve (fluorescence vs. cycle), where the cycle threshold or Ct was determined from when the fluorescence signal begins to increase exponentially. Thus to calculate the difference of relative expression of the normal and polycystic human cholangiocytes, the data obtained were analysed following the modified method of Livak and Schmittgen (Livak K J, et al. Methods 2001; 25:402), according to the following equation:
(§3) Relative values=1.8^(polycystic or normal cholangiocyte GAPDH−polycystic or normal cholangiocyte GEN)
(§4) Where the superscripts “GAPDH polycystic or normal cholangiocytes” and “Gene polycystic or normal cholangiocytes” correspond to the Ct for GAPDH and for each studied gene. The value of 1.8 (in place of 2) was used because it is assumed that the real efficiency of each amplification cycle is around 80% instead of 100%.
(§5) To analyse the effect of various stimuli on the metalloproteolytic activity of normal and polycystic human cholangiocytes cultures, a protocol similar to that described before in Example 2 was followed, but in this case the incubation of the cells was with quiescent medium (i.e. DMEM/F12, […]) in the presence of the corresponding stimulus (Table 3). Next, the same procedure as described for the analysis of basal metalloproteolytic activity was followed as described in Example 2.
(§6) Taking into account the increase in metalloproteolytic activity induced by interleukins 6 and 8 and also the oestrogen 17β-estradiol in human cholangiocytes in culture, this was further investigated to determine if the increase in activity was correlated with an increase in gene expression at the level of mRNA of the various MMPs.

[2] = test system: normal human cholangiocytes; experiment: as above; type: cell-based; conditions: for expression of MMP-2 (mRNA): FIG. 10; for expression of MMP-3 (mRNA): FIG. 11; for expression of MMP-7 (mRNA): FIG. 12; for expression of MMP-10 (mRNA): FIG. 13; for expression of MMP-11 (mRNA): FIG. 14; for expression of MMP-13 (mRNA): FIG. 15; for expression of MMP-15 (mRNA): FIG. 16; for expression of MMP-17 (mRNA): FIG. 17; for expression of MMP-27 (mRNA): FIG. 18
Description: as §1, §2, §3, §4, §5, §6

[3] = test system: polycystic human cholangiocytes; experiment: Metalloproteolytic activity of culture supernatants, ES001 fluorogenic peptide cleavage; type: cell-based; conditions: for metalloproteolytic activity in presence of stimulus: polycystic cholangiocytes vs basal, Table 3 final concentration: IL-6, IL-8 50 ng/ml, 17β-estradiol 1 nM/ml, VEGF, EGF, ENA-78, GRO-α 10 ng/ml, HGF 20 ng/ml, FIG. 9
Description: (§7) Metalloproteolytic or metalloprotease activity was measured in supernatants of cultures of normal human cholangiocytes and polycystic human cholangiocytes by an assay based on the cleavage of the ES001 fluorogenic synthetic peptide (R&D Systems Minneapolis, Minn., USA) that emits fluorescence proportional to metalloproteolytic activity. The substrate Mca-Pro-Leu-Gly-Leu-Dpa-Ala-Arg-NH2 [Mca: (7-Methoxycoumarin-4-yl)acetyl, Dpa: N-3-(2,4-Dinitrophenyl)-L-2,3-diaminopropionyl] (Knight C G, et al. FEBS Letters 1992; 296:263) is lysed between glycine and leucine by the action of the MMPs, especially MMP-1 (collagenase 1), MMP-2 (gelatinase A), MMP-7 (matrilysin), MMP-8 (collagenase 2), MMP-9 (gelatinase B), MMP-12 (macrophage elastase), MMP-13 (collagenase 3), MMP-14 (MT1-MMP), MMP-15 (MT2-MMP) and MMP-16 (MT3-MMP).
(§8) The basal metalloproteolytic activity of normal human cholangiocyte and polycystic human cholangiocytes cultures was determined by trypsinising the contents of 250 ml flasks and counting the number of cells in an inverted optical microscope using a Neubauer camera and a ½ dilution of the cell solution with trypan blue (Sigma). Next, 300,000 cells were seeded in each well of a 6-well plate and incubated with enriched DMEM/F-12 medium for 24 hours. After this time, the cells were washed with PBS and the culture medium changed for 2 ml of quiescent medium (DMEM/F-12, 1% FBS and 1% P/S) and incubated for 6 hours at 37° C./5% CO2. The supernatant was collected from each well and centrifuged at 4° C. for 10 minutes at 1,500 rpm to remove the dead cells present in the supernatant. The supernatant was concentrated 50 times using a 15 kDa (Millipore) Amicon Ultra concentrator. Next the concentrated supernatant was incubated for 2 hours at 37° C. with the ES001 fluorogenic peptide at a final concentration of 10 μM. Also, GM6001 (a global MMP inhibitor) and aprotinin (a global inhibitor of serine proteases) (both from Sigma-Aldrich) were used as controls of the specificity of the analysis of MMP activity in the assay. Recombinant MMP-10 (kindly provided by Dr. José Antonio Rodriguez Garcia, Laboratorio de Ateroesclerosis e Inflamación del CIMA, Universidad de Navarra) was used as a positive control and DMEM/F-12 medium without serum was used as the negative control. The fluorescence determination was kinetically measured in a Spectra MAX GeminiXS (Molecular Devices Sunnyvale, Calif., USA) spectrophotometer at excitation-emission wavelengths of 320-405 nm. The fluorescence intensity emitted by the culture medium was extracted from the metalloproteolytic activity values. The metalloproteolytic activity was calculated from the tangent to the curve of the fluorescence values using at least six different points over time for each type of cell and condition.
as §5
(§9) Taking into account that: i) basal activity of polycystic human cholangiocytes in culture is greater than that of normal human cholangiocytes and ii) that IL-6 and IL-8 increased the metalloproteolytic activity of normal and polycystic human cholangiocytes, the role of these two cytokines on metalloproteolytic hyperactivity of polycystic human cholangiocytes using antibodies against the receptors of IL-6 (IL6R) and/or IL-8 (CXCR1) was investigated. […]

[4] = test system: normal human cholangiocytes; experiment: as above; type: cell-based; conditions: for metalloproteolytic activity in presence of stimulus: normal cholangiocytes vs basal, Table 3 final concentration: IL-6, IL-8 50 ng/ml, 17β-estradiol 1 nM/ml, VEGF, EGF, ENA-78, GRO-α 10 ng/ml, HGF 20 ng/ml, FIG. 9
Description: as §7, §8, §5, §9

recombinant MMP-10 = recombinant MMP-10 (Homo sapiens, UniProt P09238); experiment: ES001 fluorogenic peptide assay with recombinant MMP-10 as positive control; type: biochemical; conditions: FIG. 2
Description: Metalloproteolytic or metalloprotease activity was measured in supernatants of cultures of normal human cholangiocytes and polycystic human cholangiocytes by an assay based on the cleavage of the ES001 fluorogenic synthetic peptide (R&D Systems Minneapolis, Minn., USA) that emits fluorescence proportional to metalloproteolytic activity. The substrate Mca-Pro-Leu-Gly-Leu-Dpa-Ala-Arg-NH2 [Mca: (7-Methoxycoumarin-4-yl)acetyl, Dpa: N-3-(2,4-Dinitrophenyl)-L-2,3-diaminopropionyl] […]
The basal metalloproteolytic activity of normal human cholangiocyte and polycystic human cholangiocytes cultures was determined by trypsinising the contents of 250 ml flasks and counting the number of cells in an inverted optical microscope using a Neubauer camera and a ½ dilution of the cell solution with trypan blue (Sigma). […] The fluorescence determination was kinetically measured in a Spectra MAX GeminiXS (Molecular Devices Sunnyvale, Calif., USA) spectrophotometer at excitation-emission wavelengths of 320-405 nm. The fluorescence intensity emitted by the culture medium was extracted from the metalloproteolytic activity values. The metalloproteolytic activity was calculated from the tangent to the curve of the fluorescence values using at least six different points over time for each type of cell and condition.

Sequence of recombinant MMP-10 (P09238 99-476, species assumed): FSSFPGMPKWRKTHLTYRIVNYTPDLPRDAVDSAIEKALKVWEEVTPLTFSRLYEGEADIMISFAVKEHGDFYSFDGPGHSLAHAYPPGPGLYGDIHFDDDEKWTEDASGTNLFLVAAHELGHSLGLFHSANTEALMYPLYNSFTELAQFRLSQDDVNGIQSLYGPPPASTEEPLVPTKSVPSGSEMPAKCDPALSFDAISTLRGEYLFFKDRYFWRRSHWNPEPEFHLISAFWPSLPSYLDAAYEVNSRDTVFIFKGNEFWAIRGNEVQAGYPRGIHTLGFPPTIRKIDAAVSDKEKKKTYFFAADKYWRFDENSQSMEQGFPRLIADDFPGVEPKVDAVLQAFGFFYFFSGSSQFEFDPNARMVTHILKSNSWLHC

Row | Compound | expression of the other metalloproteinases 1, 8, 9, 14, 16, 18, 24 and 26 [1] | expression of MMP-2 (mRNA) [1] | expression of MMP-3 (mRNA) [1] | expression of MMP-7 (mRNA) [1] | expression of MMP-10 (mRNA) [1] | expression of MMP-11 (mRNA) [1] | expression of MMP-13 (mRNA) [1] | expression of MMP-15 (mRNA) [1] | expression of MMP-17 (mRNA) [1] | expression of MMP-27 (mRNA) [1] | expression of the other metalloproteinases 1, 8, 9, 14, 16, 18, 24 and 26 [2] | expression of MMP-2 (mRNA) [2] | expression of MMP-3 (mRNA) [2] | expression of MMP-7 (mRNA) [2] | expression of MMP-10 (mRNA) [2] | expression of MMP-11 (mRNA) [2] | expression of MMP-13 (mRNA) [2] | expression of MMP-15 (mRNA) [2] | metalloproteolytic activity in presence of stimulus [3] | metalloproteolytic activity in presence of stimulus [4] | also measured
1 | IL-8: cytokine interleukin 8, present in the cystic fluid | did not show changes | not changed | unchanged | unchanged | none of the 3 molecules caused changes | increased | did not change | not altered | increased | unchanged | did not show changes | none of these modules induced changes | unchanged | None of the 3 molecules caused changes | increased | increased | increased | did not change | increase | increase | expression of MMP-17 (mRNA) [2]: did not change; expression of MMP-27 (mRNA) [2]: did not change
2 | CC1=C(/C=C/C(C)=C/C=C/C(C)=C\C(=O)O)C(C)(C)CCC1 [13-cis-retinoic acid] |  |  |  |  |  |  |  |  |  |  |  |  |  |  |  |  |  |  |  |  | basal metalloproteolytic activity in presence of inhibitor ([3]; polycystic cholangiocytes, 13-cis-retinoic acid 10 μM/ml or Marimastat 200 μM/ml, p<0.01, FIG. 21): inhibited; basal metalloproteolytic activity in presence of inhibitor ([4]; normal cholangiocytes, 13-cis-retinoic acid 10 μM/ml or Marimastat 200 μM/ml, p<0.01, FIG. 21): inhibited
3 | EGF: epidermal growth factor |  |  |  |  |  |  |  |  |  |  |  |  |  |  |  |  |  |  | did not induce any change | did not induce any change | 
4 | GROα: growth-regulated oncogene a |  |  |  |  |  |  |  |  |  |  |  |  |  |  |  |  |  |  | did not induce any change | did not induce any change | 
5 | IL-6: cytokine interleukin 6, present in the cystic fluid | did not show changes | increased | increased | increased | none of the 3 molecules caused changes | increased | did not cause changes | increased | increased | increased | did not show changes | none of these modules induced changes | unchanged | None of the 3 molecules caused changes | unchanged | did not change | did not cause changes | did not change | increase | increase | expression of MMP-17 (mRNA) [2]: did not change; expression of MMP-27 (mRNA) [2]: did not change
6 | CNC(=O)[C@H](Cc1c[nH]c2ccccc12)NC(=O)[C@@H](CC(=O)NO)CC(C)C [GM6001] |  |  |  |  |  |  |  |  |  |  |  |  |  |  |  |  |  |  |  |  | metalloproteolytic activity of the assay with recombinant MMP-10 (recombinant MMP-10): inhibited; metalloproteolytic activity ([3]; polycystic human cholangiocytes, presence of MMP inhibitor GM6001, p<0.001, FIG. 2): inhibited; metalloproteolytic activity ([4]; normal human cholangiocytes, presence of MMP inhibitor GM6001, p<0.001, FIG. 2): inhibited
